According to patent US10894784B2, “Heteroarylbenzimidazole compounds” (BAYER PHARMA AKTIENGESELLSCHAFT, priority 2015, dated 2021):
Where two headings read alike, the source gives them in different places.

Molecular target: TBK1 (Homo sapiens (Human), UniProt Q9UHD2)
Assay: TBK1 low ATP kinase assay (in vitro assay 1)
Format: biochemical
[1] = in vitro assay 1, read-out: TBK1 low ATP kinase assay IC50
[2] = TBK1 low ATP kinase assay IC50, in vitro assay 1

Chain of TBK1 (Q9UHD2 whole entry): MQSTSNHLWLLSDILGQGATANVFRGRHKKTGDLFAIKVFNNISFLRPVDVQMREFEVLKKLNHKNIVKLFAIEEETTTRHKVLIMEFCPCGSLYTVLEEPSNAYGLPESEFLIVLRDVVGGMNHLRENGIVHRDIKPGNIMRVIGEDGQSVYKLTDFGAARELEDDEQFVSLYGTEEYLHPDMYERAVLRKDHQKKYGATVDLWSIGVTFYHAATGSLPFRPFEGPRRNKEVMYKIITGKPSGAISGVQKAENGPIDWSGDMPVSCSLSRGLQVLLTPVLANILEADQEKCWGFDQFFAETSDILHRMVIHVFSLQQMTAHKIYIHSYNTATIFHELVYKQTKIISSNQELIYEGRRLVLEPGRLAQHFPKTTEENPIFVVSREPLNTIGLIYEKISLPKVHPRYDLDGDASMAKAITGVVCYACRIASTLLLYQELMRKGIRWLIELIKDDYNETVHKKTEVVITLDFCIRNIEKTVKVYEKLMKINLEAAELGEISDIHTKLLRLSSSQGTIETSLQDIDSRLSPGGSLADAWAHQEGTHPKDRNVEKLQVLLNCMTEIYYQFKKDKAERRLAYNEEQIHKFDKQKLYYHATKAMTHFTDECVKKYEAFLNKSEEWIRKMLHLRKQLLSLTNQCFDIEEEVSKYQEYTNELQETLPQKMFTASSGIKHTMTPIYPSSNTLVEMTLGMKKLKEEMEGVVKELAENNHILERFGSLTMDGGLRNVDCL

SMILES	IC50 [1]	IC50 [2]
Cc1cc(-c2ccc3nc(Nc4cc(C(C)N5CCN(C(=O)CC(F)(F)F)CC5)ccn4)[nH]c3c2)ncn1 (racemic) [Example 30.02.01, (rac)-3,3,3-trifluoro-1-{4-[1-(2-{[6-(6-methylpyrimidin-4-yl)-1H-benzimidazol-2-yl]amino}pyridin-4-yl)ethyl]piperazin-1-yl}propan-1-one]	–	4.46 nM
CC(c1ccnc(Nc2nc3ccc(-c4cnn(CC5CC5)c4)cc3[nH]2)c1)N1CCN(C(=O)CC(F)(F)F)CC1 (single isomer, unassigned) [Example 39.02.02, 1-(4-{(1R or 1S)-1-[2-({6-[1-(cyclopropylmethyl)-1H-pyrazol-4-yl]-1H-benzimidazol-2-yl}amino)pyridin-4-yl]ethyl}piperazin-1-yl)-3,3,3-trifluoropropan-1-one]	–	1.8 nM
CC(c1ccnc(Nc2nc3ccc(-c4cnn(CC5CC5(F)F)c4)c(Cl)c3[nH]2)c1)N1CCN(C(=O)CC(F)(F)F)CC1 (single isomer, unassigned) [Example 70.01, 1-{4-[(1R or 1S)-1-(2-{[7-chloro-6-(1-{[(1RS)-2,2-difluorocyclopropyl]methyl}-1H-pyrazol-4-yl)-1H-benzimidazol-2-yl]amino}pyridin-4-yl)ethyl]piperazin-1-yl}-3,3,3-trifluoropropan-1-one]	0.88 nM	–
CC(C)Oc1cncnc1-c1ccc2nc(Nc3cc(C(C)N4CCN(C(=O)C5CCC5)CC4)ccn3)[nH]c2c1 (single isomer, unassigned) [Example 36.04, cyclobutyl(4-{(1R or 1S)-1-[2-({6-[5-(propan-2-yloxy)pyrimidin-4-yl]-1H-benzimidazol-2-yl}amino)pyridin-4-yl]ethyl}piperazin-1-yl)methanone]	2.5 nM	–
CCN(CC)c1cc(-c2ccc3nc(Nc4cc(CN5CCN(C(=O)OC(C)(C)C)CC5)ccn4)[nH]c3c2)ncn1 [Example 155.01, tert-butyl 4-{[2-({6-[6-(diethylamino)pyrimidin-4-yl]-1H-benzimidazol-2-yl}amino)pyridin-4-yl]methyl}piperazine-1-carboxylate]	36 nM	–
CC(c1ccnc(Nc2nc3ccc(-c4cnn(CC5CCC5)c4)cc3[nH]2)c1)N1CCN(C(=O)C2CC2)CC1 (single isomer, unassigned) [Example 59.01.03, (4-{(1R or 1S)-1-[2-({6-[1-(cyclobutylmethyl)-1H-pyrazol-4-yl]-1H-benzimidazol-2-yl}amino)pyridin-4-yl]ethyl}piperazin-1-yl)(cyclopropyl)methanone]	2.59 nM	–
Cc1noc(-c2ccc3nc(Nc4cc(CN5CCN(C(=O)c6cccs6)CC5)ccn4)[nH]c3c2)n1 [Example 101.24, {4-[(2-{[6-(3-methyl-1,2,4-oxadiazol-5-yl)-1H-benzimidazol-2-yl]amino}pyridin-4-yl)methyl]piperazin-1-yl}(thiophen-2-yl)methanone]	160 nM	–
CC(c1ccnc(Nc2nc3ccc(-c4cnn(CC5CC5(F)F)c4)cc3[nH]2)c1)N1CCN(C(=O)CC(F)(F)F)CC1 (single isomer, unassigned) [Example 55.02.01, 1-{4-[(1R or 1S)-1-(2-{[6-(1-{[(1R or IS)-2,2-difluorocyclopropyl]methyl}-1H-pyrazol-4-yl)-1H-benzimidazol-2-yl]amino}pyridin-4-yl)ethyl]piperazin-1-yl}-3,3,3-trifluoropropan-1-one]	0.72 nM	–
Cc1nnc(-c2ccc3nc(Nc4cc(CN5CCN(C(=O)OC(C)(C)C)CC5)ccn4)[nH]c3c2)o1 [Example 66.01.01, tert-butyl 4-[(2-{[6-(5-methyl-1,3,4-oxadiazol-2-yl)-1H-benzimidazol-2-yl]amino}pyridin-4-yl)methyl]piperazine-1-carboxylate]	33.3 nM	–
CNc1cc(-c2ccc3nc(Nc4cc(CN5CCN(C(=O)CC(F)(F)F)CC5)ccn4)[nH]c3c2)ncn1 [Example 150.02, 3,3,3-trifluoro-1-(4-{[2-({6-[6-(methylamino)pyrimidin-4-yl]-1H-benzimidazol-2-yl}amino)pyridin-4-yl]methyl}piperazin-1-yl)propan-1-one]	9.6 nM	–
CC(c1ccnc(Nc2nc3ccc(-c4ccnn4C(C)C)cc3[nH]2)c1)N1CCN(C(=O)OC(C)(C)C)CC1 (single isomer, unassigned) [Example 72.01, tert-butyl 4-{(1R or 1S)-1-[2-({6-[1-(propan-2-yl)-1H-pyrazol-5-yl]-1H-benzimidazol-2-yl}amino)pyridin-4-yl]ethyl}piperazine-1-carboxylate]	800 nM	–
CC(c1ccnc(Nc2nc3ccc(-c4cnn(CC5CC5(F)F)c4)cc3[nH]2)c1)N1CCN(C(=O)C2CC2)CC1 (single isomer, unassigned) [Example 55.03.02, cyclopropyl{4-[(1R or 1S)-1-(2-{[6-(1-{[(1R or 1S)-2,2-difluorocyclopropyl]methyl}-1H-pyrazol-4-yl)-1H-benzimidazol-2-yl]amino}pyridin-4-yl)ethyl]piperazin-1-yl}methanone]	0.66 nM	–
Cc1cc(-c2ccc3nc(Nc4cc(C(C)N5CCN(C(=O)OC(C)(C)C)CC5)ccn4)[nH]c3c2F)ncn1 (single isomer, unassigned) [Example 172.01, tert-butyl 4-[(1R or 1S)-1-(2-{[7-fluoro-6-(6-methylpyrimidin-4-yl)-1H-benzimidazol-2-yl]amino}pyridin-4-yl)ethyl]piperazine-1-carboxylate]	39.8 nM	–

More lines, now with the values ahead:

IC50 [1]	IC50 [2]	SMILES
0.33 nM	–	CC(c1ccnc(Nc2nc3ccc(-c4cc(N5CCCC5)ncn4)cc3[nH]2)c1)N1CCN(C(=O)C2CC2)CC1 (single isomer, unassigned) [Example 117.02, cyclopropyl(4-{(1R or 1S)-1-[2-({6-[6-(pyrrolidin-1-yl)pyrimidin-4-yl]-1H-benzimidazol-2-yl}amino)pyridin-4-yl]ethyl}piperazin-1-yl)methanone]
> 20000 nM	–	Cc1noc(-c2ccc3nc(Nc4cc(CN5CCN(c6ccc(C(F)(F)F)cn6)CC5)ccn4)[nH]c3c2)n1 [Example 101.08, 6-(3-methyl-1,2,4-oxadiazol-5-yl)-N-[4-({4-[5-(trifluoromethyl)pyridin-2-yl]piperazin-1-yl}methyl)pyridin-2-yl]-1H-benzimidazol-2-amine]
193 nM	–	O=C(C1CC1)N1CCN(Cc2ccnc(Nc3nc4ccc(-c5nc(Cc6ccccc6)no5)cc4[nH]3)c2)CC1 [Example 21.01, {4-[(2-{[6-(3-benzyl-1,2,4-oxadiazol-5-yl)-1H-benzimidazol-2-yl]amino}pyridin-4-yl)methyl]piperazin-1-yl}(cyclopropyl)methanone]
198 nM	–	COc1cc(-c2ccc3nc(Nc4cc(CN5CCN(C(=O)C6CC6)CC5)ccn4)[nH]c3c2)c(F)cn1 [Example 03.01, cyclopropyl{4-[(2-{[6-(5-fluoro-2-methoxypyridin-4-yl)-1H-benzimidazol-2-yl]amino}pyridin-4-yl)methyl]piperazin-1-yl}methanone]
22 nM	–	CC(C)c1cc(-c2ccc3nc(Nc4cc(CN5CCN(C(=O)CC(F)(F)F)CC5)ccn4)[nH]c3c2)ncn1 [Example 78.01, 3,3,3-trifluoro-1-(4-{[2-({6-[6-(propan-2-yl)pyrimidin-4-yl]-1H-benzimidazol-2-yl}amino)pyridin-4-yl]methyl}piperazin-1-yl)propan-1-one]
34.1 nM	–	O=C(C1CC1)N1CCN(Cc2ccnc(Nc3nc4ccc(-c5ncnc(NCC6CC6)c5F)cc4[nH]3)c2)CC1 [Example 195.03, cyclopropyl[4-({2-[(6-{6-[(cyclopropylmethyl)amino]-5-fluoropyrimidin-4-yl}-1H-benzimidazol-2-yl)amino]pyridin-4-yl}methyl)piperazin-1-yl]methanone]
15 nM	–	O=C(CC(F)(F)F)N1CCN(Cc2ccnc(Nc3nc4ccc(-c5ccnc(C(F)F)c5)cc4[nH]3)c2)CC1 [Example 139.02, 1-(4-{[2-({6-[2-(difluoromethyl)pyridin-4-yl]-1H-benzimidazol-2-yl}amino)pyridin-4-yl]methyl}piperazin-1-yl)-3,3,3-trifluoropropan-1-one]
38.2 nM	–	O=C(C1CC1)N1CCN(Cc2ccnc(Nc3nc4ccc(-c5nc(C6CC6)no5)cc4[nH]3)c2)CC1 [Example 17.05, cyclopropyl{4-[(2-{[6-(3-cyclopropyl-1,2,4-oxadiazol-5-yl)-1H-benzimidazol-2-yl]amino}pyridin-4-yl)methyl]piperazin-1-yl}methanone]
124 nM	–	O=C(CC(F)(F)F)N1CCN(Cc2ccnc(Nc3nc4ccc(-c5cnc(Cl)nc5)cc4[nH]3)c2)CC1 [Example 45.02.01, 1-{4-[(2-{[6-(2-chloropyrimidin-5-yl)-1H-benzimidazol-2-yl]amino}pyridin-4-yl)methyl]piperazin-1-yl}-3,3,3-trifluoropropan-1-one]
346 nM	–	COc1nccc(-c2ccc3nc(Nc4cc(CN5CCN(C(=O)C6CC6)CC5)cc(C(F)(F)F)n4)[nH]c3c2)n1 [Example 25.02.01, cyclopropyl(4-{[2-{[6-(2-methoxypyrimidin-4-yl)-1H-benzimidazol-2-yl]amino}-6-(trifluoromethyl)pyridin-4-yl]methyl}piperazin-1-yl)methanone]
4.68 nM	–	CCOc1nccc(-c2ccc3nc(Nc4cc(C(C)N5CCN(C(=O)CC(F)(F)F)CC5)ccn4)[nH]c3c2)n1 (racemic) [Example 26.02.01, (rac)-1-{4-[1-(2-{[6-(2-ethoxypyrimidin-4-yl)-1H-benzimidazol-2-yl]amino}pyridin-4-yl)ethyl]piperazin-1-yl}-3,3,3-trifluoropropan-1-one]
401 nM	–	COc1ncccc1-c1ccc2nc(Nc3cc(CN4CCN(C(=O)CC5CC5)CC4)ccn3)[nH]c2c1 [Example 15.02, 2-cyclopropyl-1-{4-[(2-{[6-(2-methoxypyridin-3-yl)-1H-benzimidazol-2-yl]amino}pyridin-4-yl)methyl]piperazin-1-yl}ethanone]
1500 nM	–	O=C(CC(F)(F)F)N1CCN(Cc2ccnc(Nc3nc4ccc(-c5ccncc5C(F)(F)F)cc4[nH]3)c2)CC1 [Example 106.01, 3,3,3-trifluoro-1-(4-{[2-({6-[3-(trifluoromethyl)pyridin-4-yl]-1H-benzimidazol-2-yl}amino)pyridin-4-yl]methyl}piperazin-1-yl)propan-1-one]
